The record followed here is publication PMC11831560, “Development of the Pyrido[2,3-d]pyrimidin-7(8H)-one Scaffold toward Potent and Selective NUAK1 Inhibitors” (ACS Medicinal Chemistry Letters, 2025).

T1 sequence (P27448 whole entry): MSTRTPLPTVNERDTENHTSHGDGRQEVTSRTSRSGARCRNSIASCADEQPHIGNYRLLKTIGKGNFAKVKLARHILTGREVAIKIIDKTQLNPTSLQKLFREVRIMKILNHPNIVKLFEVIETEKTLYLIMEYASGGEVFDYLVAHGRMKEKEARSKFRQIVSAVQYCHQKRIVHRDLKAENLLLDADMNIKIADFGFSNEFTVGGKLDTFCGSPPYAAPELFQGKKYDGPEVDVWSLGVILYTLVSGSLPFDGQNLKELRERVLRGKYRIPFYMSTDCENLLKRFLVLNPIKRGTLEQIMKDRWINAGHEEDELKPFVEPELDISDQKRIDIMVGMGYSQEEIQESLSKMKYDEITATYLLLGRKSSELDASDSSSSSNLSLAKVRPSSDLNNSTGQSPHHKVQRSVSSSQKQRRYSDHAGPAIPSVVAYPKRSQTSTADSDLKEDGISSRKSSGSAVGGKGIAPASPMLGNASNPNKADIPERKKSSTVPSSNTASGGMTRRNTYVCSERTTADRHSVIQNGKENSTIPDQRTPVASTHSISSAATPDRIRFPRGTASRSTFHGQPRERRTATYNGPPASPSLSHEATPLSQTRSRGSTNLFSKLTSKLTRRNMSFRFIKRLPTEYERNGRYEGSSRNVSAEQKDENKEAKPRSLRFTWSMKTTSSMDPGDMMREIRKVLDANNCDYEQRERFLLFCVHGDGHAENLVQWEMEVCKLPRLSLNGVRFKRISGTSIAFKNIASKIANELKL

Test system in the first data set: not listed separately
The data set is described as follows: Microsomal stability, mouse. In kind it is in vitro ADME. The note with it: mouse liver microsomes; read-out: MLM t1/2. Here is the method:
All single point assay determinations carried out in duplicate.
ADMET and PK experimental methods
Microsomal stability: analysis was performed by Cyprotex Discovery. […]
Regarding `COc1cc(Nc2ncc3c(n2)N(C2CCCC2)C(=O)C(C)(C)O3)cc(OC)c1OC` [Compound 19], the half-life at 1 µM came to 1.4 min.

Another data set has as its target T1, MARK3 (Homo sapiens, UniProt P27448).
T1 construct: purchased MRC PPU
The data set is described as follows: ADP-Glo biochemical assay MARK3. The following applies: ADP-Glo assay. On the procedure:
(§1) Biological experimental procedures
(§2) ADP-Glo biochemical assays
(§3) Protein kinase activity in the presence of inhibitor compounds was determined by ADP-Glo assay (Promega), as previously described.1,2 Compounds were serialised using a Labcyte Echo 520 and transferred to 384 well plates (Greiner 784201) followed by the addition 5 µL of substrate containing peptide and ATP at Km in buffer (see Table S6). 5 µL of purified protein was added and the plate was incubated for 60 minutes at room temperature (ng/well; see Table S6). 3 µL of assay mixture was transferred using an Integra Viaflo384 into a white low volume plate (Greiner 781904) prior to the addition of 3 µL of ADP-Glo Reagent™ for a further 40 minute incubation. After incubation with 6 µL of Kinase Detection Reagent for 30 minutes, plate luminescence was read (Pherastar FSX, BMG […]
(§4) 30 mM HEPES pH7.4, 3 mM MgCl2, 3 mM MnCl2, 1.2 mM DTT, 0.01% CHAPS
(§5) Table S6: Conditions for protein kinase ADP-Glo assays
(§6) ATP AT Peptide Peptide Enzyme Enzyme Assay Buffe Min.
(§7) Protein conc. P Peptide name conc. supplier amount supplier vol. r na […]
(§8) NUAK1 µM µM Sakamototide 50 µM Merck 6.7 ng PPU 10 µl A 6
(§9) A µM µM Sakamototide 100 µM Merck 1 ng PPU 10 µl B 2 […]
(§10) aMin. n: Minimum number of technical replicates per compound
Turning to `CN1CCN(c2ccc(Nc3ncc4c(n3)N(C3CCCC3)C(=O)C(C)(C)O4)cc2)CC1` [Compound 6], the “MARK3 pIC50” value is listed as 5.9.
`COc1cc(N2CCN(C)CC2)ccc1Nc1ncc2c(C)cc(=O)n(C3CCCC3)c2n1` [Compound 12]: the “MARK3 pIC50” value is reported as below 4.6.
Same read-out and setting: the value for `COc1cc(Nc2ncc3cc(C#N)c(=O)n(C4CCCC4)c3n2)cc(OC)c1` [Compound 17] was below 4.6.
The same measure, in the same setting: the value for `COc1cc(Nc2ncc3c(n2)N(C2CCCC2)C(=O)C(C)(C)O3)cc(OC)c1OC` [Compound 19] was 5.6.

The same data set, now with this note: MARK3 IC50/NUAK1 IC50.
Turning to `CN1CCN(c2ccc(Nc3ncc4c(n3)N(C3CCCC3)C(=O)C(C)(C)O4)cc2)CC1` [Compound 6], the “MARK3 Fold selectivity IC50/NUAK1 IC50” value is given as 8 fold.
Still for that read-out and setting: with `COc1cc(N2CCN(C)CC2)ccc1Nc1ncc2c(C)cc(=O)n(C3CCCC3)c2n1` [Compound 12] the figure was above 89 fold; with `COc1cc(Nc2ncc3cc(C#N)c(=O)n(C4CCCC4)c3n2)cc(OC)c1` [Compound 17], above 676 fold.
Still for that read-out and setting: with `COc1cc(Nc2ncc3c(n2)N(C2CCCC2)C(=O)C(C)(C)O3)cc(OC)c1OC` [Compound 19] the figure was 57 fold.

The target of a further data set is T2, NUAK1 (Homo sapiens, UniProt O60285).
T2 sequence (O60285 1-661): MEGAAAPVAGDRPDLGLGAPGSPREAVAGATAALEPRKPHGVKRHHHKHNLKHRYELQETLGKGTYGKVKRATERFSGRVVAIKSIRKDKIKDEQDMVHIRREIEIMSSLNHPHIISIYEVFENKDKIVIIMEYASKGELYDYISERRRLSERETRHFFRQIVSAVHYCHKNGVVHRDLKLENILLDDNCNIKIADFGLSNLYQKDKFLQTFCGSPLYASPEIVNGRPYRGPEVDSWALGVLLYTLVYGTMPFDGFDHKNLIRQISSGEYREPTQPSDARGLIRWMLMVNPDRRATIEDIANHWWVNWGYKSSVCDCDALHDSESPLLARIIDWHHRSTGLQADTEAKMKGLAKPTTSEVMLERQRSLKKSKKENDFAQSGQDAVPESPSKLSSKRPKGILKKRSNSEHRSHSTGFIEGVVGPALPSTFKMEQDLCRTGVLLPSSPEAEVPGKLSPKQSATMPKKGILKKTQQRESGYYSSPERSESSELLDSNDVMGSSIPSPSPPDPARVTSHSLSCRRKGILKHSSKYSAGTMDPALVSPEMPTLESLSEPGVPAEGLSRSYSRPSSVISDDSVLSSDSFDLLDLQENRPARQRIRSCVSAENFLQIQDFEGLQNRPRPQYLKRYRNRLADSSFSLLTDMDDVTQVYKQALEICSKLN
The data set is described as follows: ADP-Glo biochemical assay NUAK1. More on the design: purchased MRC PPU. The note with it: ADP-Glo assay. Here is the method: as §1, §2, §3, §4, §5, §6, §7, §8, §9, §10
In the case of `CN1CCN(c2ccc(Nc3ncc4c(n3)N(C3CCCC3)C(=O)C(C)(C)O4)cc2)CC1` [Compound 6], the “NUAK1 pIC50” value is given as 6.8.
For `COc1cc(N2CCN(C)CC2)ccc1Nc1ncc2c(C)cc(=O)n(C3CCCC3)c2n1` [Compound 12], the “NUAK1 pIC50” value is on record as 6.6.
As for `COc1cc(Nc2ncc3cc(C#N)c(=O)n(C4CCCC4)c3n2)cc(OC)c1` [Compound 17], the “NUAK1 pIC50” value amounted to 7.4.
Turning to `COc1cc(Nc2ncc3c(n2)N(C2CCCC2)C(=O)C(C)(C)O3)cc(OC)c1OC` [Compound 19], the “NUAK1 pIC50” value was found to be 7.4.

In the next data set the target is T2, NUAK1. Kind of data set: NanoBRET target engagement assay, HEK293 cells. The note with it: cell-based NanoBRET target engagement assay. Here is the method:
NanoBRET® target engagement assay
The binding of compounds to NUAK1 in intact cells was assessed using an NanoBRET® TE Intracellular Kinase Assay (Promega N2501). HEK293 cells transiently transfected with NanoLuc®- NUAK1 Fusion Vector (Promega NV1831) were incubated with 10 nL K5 tracer (provided in the kit, Promega N2501) and 40 nL of the test compounds in 100% DMSO in a white low volume non-binding 384 assay plate (Grenier Bio One 784904) for 90 min at 37 °C. After incubation, followed by cooling for 15 min at room temperature, 4 µL of the Intracellular TE Nano-Glo ® Substrate/Inhibitor (Promega N2160) was added to each well. The plate was read using a Pherastar FSX plate reader (BMG Labtech).
Minimum number of 2 technical replicates per compound.
Activity pIC50 values and standard error of the mean (SEM) were estimated using a 4-parameter fit (Dotmatics). The SEM for all reported data was 0.2 or lower. See Experimental Procedures for minimum number of replicates per compound. Each experiment included a Standard compound whose pIC50 value was compared to a quality control chart. If the Standard pIC50 value fell outside the range of pIC50 +/-3 standard deviation, then the experiment was invalidated. […]
In the case of `CN1CCN(c2ccc(Nc3ncc4c(n3)N(C3CCCC3)C(=O)C(C)(C)O4)cc2)CC1` [Compound 6], the “NUAK1 cell TE pIC50” value was below 4.6.
As to `COc1cc(Nc2ncc3cc(C#N)c(=O)n(C4CCCC4)c3n2)cc(OC)c1` [Compound 17], the “NUAK1 cell TE pIC50” value is on record as below 4.6.
`COc1cc(Nc2ncc3c(n2)N(C2CCCC2)C(=O)C(C)(C)O3)cc(OC)c1OC` [Compound 19]: the “NUAK1 cell TE pIC50” value is “inactive”.

The same data set, now with this note: cell-based NanoBRET target engagement assay; read-out: NUAK1 cell TE pIC50 (converted).
Take `COc1cc(Nc2ncc3c(n2)N(C2CCCC2)C(=O)C(C)(C)O3)cc(OC)c1OC` [Compound 19]: the IC50 was above 25.1 µM.
